“Also recorded” adds a separate entry of the source.
Key:
Assay type in all cases: cell-based, human
[1] = system: KDR+ CXCR4+ mesoderm; experiment: Specification of definitive hemogenic endothelium (HE) and hematopoietic potential from isolated day 3 WNTd KDR+ CXCR4+ mesoderm; conditions: for hematopoietic potential of the CD34+ HE specified: retinol (5 μM) added on day 3 to isolated KDR+ CXCR4+ mesoderm
Method: The hESC lines H1 and H9, and human iPSC1 were maintained on irradiated mouse embryonic fibroblasts in hESC media as described previously (Sturgeon, C. M., et al. Nat Biotechnol 32, 554-561, (2014); Thomson, J. A. et al. Science 282, 1145-1147 (1998); Dege, C. et al., J Vis Exp, (2017)). For differentiation, hPSC were cultured on Matrigel-coated plasticware (BD Biosciences, Bedford, MA) for 24 hours, followed by embryoid body (EB) generation, as described previously (Kennedy, M. et al. Cell Rep 2, 1722-1735, (2012); Dege, C. et al. J Vis Exp, (2017); Ditadi, A. et al. Methods 101, 65-72, (2016)). Briefly, hPSCs were dissociated with brief trypsin-EDTA (0.05%) treatment, followed by scraping. Embryoid body (EB) aggregates were resuspended in SFD media34 supplemented with L-glutamine (2 mM), ascorbic acid (1 mM), monothioglycerol (MTG, 4×10^−4 M; Sigma), transferrin (150 μg/mL), and BMP-4 (10 ng/mL). 24 hours later, bFGF (5 ng/mL) was added. On the second day of differentiation, ACTIVIN A, SB-431542 (6 μM), CHIR99021 (3 μM), and/or IWP2 (3 μM) were added. On the third day, EBs were changed to StemPro-34 media supplemented as above, with bFGF (5 ng/mL) and VEGF (15 ng/mL) and treated with either 10 μM of the pan-ALDH inhibitor DEAB (4-Diethylaminobenzaldehyde, Sigma #D86256; “RA-independent”) or 5 μM retinol (ROH, Sigma #R7632; “RA-dependent”). On day 6, IL-6 (10 ng/mL), IGF-1 (25 ng/mL), IL-11 (5 ng/mL), SCF (50 ng/mL), EPO (2 U/mL final) with DEAB or ROH were added. HE was FACS-isolated for terminal assays on day 8 (DEAB) or day 10 (ROH). All differentiation cultures were maintained at 37° C. All embryoid bodies and mesodermal aggregates were cultured in a 5% CO2/5% 02/90% N2 environment. All recombinant factors are human and were purchased from Biotechne. Analysis of hematopoietic colony potential via Methocult (Stem Cell Technologies) was performed as described previously (Ditadi, A. et al. Nat Cell Biol 17, 580-591, (2015); Kennedy, M. et al. Cell Rep 2, 1722-1735, (2012)).
For isolation of mesodermal populations, day 3 of differentiation WNTd KDR+ CD235a^negCXCR4+/neg and WNTi KDR+ CD235a+ cells were FACS-isolated and reaggregated at 250,000 cells/mL in day 3 media, as above. Cultures were plated in 250 μL volumes in a 24 well low-adherence culture plate, and grown overnight in a 37° C. incubator, with a 5% CO2/5% 02/90% N2 environment. As specified, RA was manipulated with either 5 μM ROH or ATRA (Sigma #R2625), or 10 μM DEAB. On day 4, an additional 1 mL of RA-supplemented day 3 media was added to reaggregates. On day 6 of differentiation, CD34+ and CD43+ cells from WNTi cultures were FACS-isolated for terminal assays. WNTd cultures were fed as normally, but without additional RA manipulation. CD34+ cells were sorted from all WNTd populations on day 8 of differentiation.
CD34+CD43^neg hemogenic endothelium was isolated by FACS and allowed to undergo the endothelial-to-hematopoietic transition as described previously (Ditadi, A. et al., Nat Cell Biol 17, 580-591, (2015); Ditadi, A. et al., Methods 101, 65-72, (2016)). Briefly, cells (CD34+CD43^neg or CD34+CD43^negCD73^negCXCR4neg cells) were aggregated overnight at a density of 2×10^5 cells/mL in StemPro-34 media supplemented with L-glutamine (2 mM), ascorbic acid (1 mM), monothioglycerol (MTG, 4×10^−4 M; Sigma-Aldrich), holo-transferrin (150 μg/mL), TPO (30 ng/mL), IL-3 (30 ng/mL), SCF (100 ng/mL), IL-6 (10 ng/mL), IL-11 (5 ng/mL), IGF-1 (25 ng/mL), EPO (2 U/mL), VEGF (5 ng/mL), bFGF (5 ng/mL), BMP4 (10 ng/mL), FLT3L (10 ng/mL), and SHH (20 ng/mL). Aggregates were spotted onto Matrigel-coated plasticware and were cultured for additional 3 or 9 days for WNTi and WNTd cultures, respectively. Cultures were maintained in a 37° C. incubator, in a 5% CO2/5% 02/90% N2 environment. Hemato-endothelial cultures were subsequently harvested by trypsinization, and assessed for hematopoietic potential by Methocult in a 37° C. incubator, in a 5% CO2/air environment. […]

[2] = system: WNTd KDR+ CXCR4neg mesoderm; experiment: Definitive hematopoietic development / HE specification from isolated day 3 WNTd KDR+ CXCR4neg mesoderm
Method: The hESC lines H1 and H9, and human iPSC1 were maintained on irradiated mouse embryonic fibroblasts in hESC media as described previously (Sturgeon, C. M., et al. Nat Biotechnol 32, 554-561, (2014); Thomson, J. A. et al. Science 282, 1145-1147 (1998); Dege, C. et al., J Vis Exp, (2017)). For differentiation, hPSC were cultured on Matrigel-coated plasticware (BD Biosciences, Bedford, MA) for 24 hours, followed by embryoid body (EB) generation, as described previously (Kennedy, M. et al. Cell Rep 2, 1722-1735, (2012); Dege, C. et al. J Vis Exp, (2017); Ditadi, A. et al. Methods 101, 65-72, (2016)). Briefly, hPSCs were dissociated with brief trypsin-EDTA (0.05%) treatment, followed by scraping. Embryoid body (EB) aggregates were resuspended in SFD media34 supplemented with L-glutamine (2 mM), ascorbic acid (1 mM), monothioglycerol (MTG, 4×10^−4 M; Sigma), transferrin (150 μg/mL), and BMP-4 (10 ng/mL). 24 hours later, bFGF (5 ng/mL) was added. On the second day of differentiation, ACTIVIN A, SB-431542 (6 μM), CHIR99021 (3 μM), and/or IWP2 (3 μM) were added. On the third day, EBs were changed to StemPro-34 media supplemented as above, with bFGF (5 ng/mL) and VEGF (15 ng/mL) and treated with either 10 μM of the pan-ALDH inhibitor DEAB (4-Diethylaminobenzaldehyde, Sigma #D86256; “RA-independent”) or 5 μM retinol (ROH, Sigma #R7632; “RA-dependent”). On day 6, IL-6 (10 ng/mL), IGF-1 (25 ng/mL), IL-11 (5 ng/mL), SCF (50 ng/mL), EPO (2 U/mL final) with DEAB or ROH were added. HE was FACS-isolated for terminal assays on day 8 (DEAB) or day 10 (ROH). All differentiation cultures were maintained at 37° C. […]
(§1) CD34+CD43^neg hemogenic endothelium was isolated by FACS and allowed to undergo the endothelial-to-hematopoietic transition as described previously (Ditadi, A. et al., Nat Cell Biol 17, 580-591, (2015); Ditadi, A. et al., Methods 101, 65-72, (2016)). […] Hemato-endothelial cultures were subsequently harvested by trypsinization, and assessed for hematopoietic potential by Methocult in a 37° C. incubator, in a 5% CO2/air environment. […]

[3] = system: WNTd differentiation cultures; experiment: Hematopoietic potential of HE from bulk WNTd differentiation cultures treated on day 3 (erythro-myeloid CFC, BFU-E globin); conditions: ROH on day 3 (RAd HE) compared with DEAB (RAi HE)
Method: (§2) The hESC lines H1 and H9, and human iPSC1 were maintained on irradiated mouse embryonic fibroblasts in hESC media as described previously (Sturgeon, C. M., et al. Nat Biotechnol 32, 554-561, (2014); Thomson, J. A. et al. Science 282, 1145-1147 (1998); Dege, C. et al., J Vis Exp, (2017)). For differentiation, hPSC were cultured on Matrigel-coated plasticware (BD Biosciences, Bedford, MA) for 24 hours, followed by embryoid body (EB) generation, as described previously (Kennedy, M. et al. Cell Rep 2, 1722-1735, (2012); Dege, C. et al. J Vis Exp, (2017); Ditadi, A. et al. Methods 101, 65-72, (2016)). Briefly, hPSCs were dissociated with brief trypsin-EDTA (0.05%) treatment, followed by scraping. […]
as §1, with “environment. The experiments were performed in triplicate and the mean (±standard deviation) of the […] calculated for each data set is reported.” for “environment.”

[4] = system: HOXA genes; experiment: HOXA gene expression in CXCR4+ mesoderm-derived CD34+ cells; conditions: after ROH treatment of CXCR4+ mesoderm on day 3
Method: Total RNA was prepared for whole-transcriptome sequencing using the Clontech SMARTer kit and was sequenced using an Illumina HiSeq 2500 with 1×50 single reads. Reads were aligned to hg19 using STAR and gene counts were obtained using Subread. TMM normalization and RPKM counts were calculated using EdgeR. Gene Set Enrichment Analysis (GSEA, version 4.0.1) and the Database for Annotation, Visualization, and Integrated discovery (DAVID, version 6.8) were used for differential expression analysis. Morpheus (software.broadinstitute.org/morpheus) was used to create heatmaps and perform hierarchical clustering (one minus the Pearson correlation with average linkage). Bulk RNA-seq comparison to scRNA-seq was performed using the SingleR package (version 1.0.1)(Aran, D. et al., Nat Immunol 20, 163-172, (2019)) implemented in R (version 3.5.1). qRT-PCR was performed as previously described (Sturgeon, C. M., et al., Nat Biotechnol 32, 554-561, (2014)). Briefly, total RNA was isolated with the RNAqueous RNA Isolation Kit (Ambion), followed by reverse transcription using random hexamers and Oligo (dT) with Superscript III Reverse Transcriptase (Invitrogen). Real-time quantitative PCR was performed on a StepOnePlus thermocycle (Applied Biosystems), using Power Green SYBR mix (Invitrogen). […] Gene expression was evaluated as DeltaCt relative to control (ACTB). […]

[5] = system: WNTi CD235a+ mesoderm; experiment: Extra-embryonic-like HE specification from isolated day 3 WNTi CD235a+ mesoderm
Method: as §2, with “scraping. Embryoid body (EB) aggregates were resuspended in SFD media34 supplemented with L-glutamine (2 mM), ascorbic acid (1 mM), monothioglycerol (MTG, 4×10^−4 M; Sigma), transferrin (150 μg/mL), and BMP-4 (10 ng/mL). 24 hours later, bFGF (5 ng/mL) was added.” for “scraping.”
as §1

CCN(CC)c1ccc(C=O)cc1 [DEAB, 4-Diethylaminobenzaldehyde]
hematopoietic potential of the CD34+ population obtained ([1]; DEAB (ALDH inhibitor) added to KDR+ CXCR4+ mesoderm culture): completely lacked any hematopoietic potential
impact on definitive hematopoietic specification ([2]; DEAB added to KDR+ CXCR4neg mesoderm differentiation, any stage): gives rise to definitive hematopoietic progenitors; also recorded: no negative impact

CC1=C(/C=C/C(C)=C/C=C/C(C)=C/CO)C(C)(C)CCC1 [ROH, retinol]
erythro-myeloid CFC potential of the resulting HE [3]: significantly more erythro-myeloid CFC potential than RAi HE
fetal (HBG) globin expression of resultant BFU-E [3]: higher expression of fetal (HBG) globin
stage at which ROH treatment results in specification of HE ([1]; ROH treatment on day 3, 4 or 5 of CXCR4+ mesoderm): on day 3 of differentiation, but not thereafter, resulted in the specification of HE
hematopoietic potential of the CD34+ HE specified [1]: harbored definitive erythroid, myeloid, and lymphoid hematopoietic potential
hematopoietic potential of the CD34+ HE specified ([1]; listed as retinol): capable of erythro-myeloid-lymphoid multilineage hematopoiesis
HOXA gene expression [4]: elevated HOXA gene expression

CC1=C(/C=C/C(C)=C/C=C/C(C)=C/C(=O)O)C(C)(C)CCC1 [ATRA, all-trans-retinoic acid]
ATRA concentration repressive to extra-embryonic-like HE specification [5]: > 1 nM
specification of definitive HE ([1]; 1 nM ATRA on isolated KDR+ CXCR4+ mesoderm, day 3 of differentiation): robust specification of definitive HE
specification of HE ([1]; ATRA concentrations lower than 1 nM and higher than 10 nM, isolated KDR+ CXCR4+ mesoderm): failed to specify HE
effect on definitive hematopoietic development ([2]; 1-10 nM ATRA, WNTd KDR+ CXCR4neg mesoderm): no significant effect
ATRA concentration repressive to HE specification ([2]; WNTd KDR+ CXCR4neg mesoderm): > 100 nM

Reference: US20250333701A1, “COMPOSITIONS AND METHODS FOR GENERATING HEMATOPOIETIC STEM CELLS (HSCS)” (Washington University, priority 2019, published 2025)
